Molecules are shown by their SMILES. Where two headings read alike, the source gives them in different places.

Data on 3 molecules can be found in patent publication US20250011330A1, “Imidazo[1,2- a]pyrazine and Imidazo[1,2- a]pyridine Based Tyrosyl-DNA Phosphodiesterase I (TDP1) Inhibitors” (The USA, As Represented by the Secretary, Department of …, priority 2021, published 2025).

For test [1], the target named is T1, TDP1 (Homo sapiens (Human), UniProt Q9NUW8). Briefly: TDP1 gel-based in vitro fluorescence assay. It counts as biochemical.
T1 sequence (Q9NUW8 whole entry): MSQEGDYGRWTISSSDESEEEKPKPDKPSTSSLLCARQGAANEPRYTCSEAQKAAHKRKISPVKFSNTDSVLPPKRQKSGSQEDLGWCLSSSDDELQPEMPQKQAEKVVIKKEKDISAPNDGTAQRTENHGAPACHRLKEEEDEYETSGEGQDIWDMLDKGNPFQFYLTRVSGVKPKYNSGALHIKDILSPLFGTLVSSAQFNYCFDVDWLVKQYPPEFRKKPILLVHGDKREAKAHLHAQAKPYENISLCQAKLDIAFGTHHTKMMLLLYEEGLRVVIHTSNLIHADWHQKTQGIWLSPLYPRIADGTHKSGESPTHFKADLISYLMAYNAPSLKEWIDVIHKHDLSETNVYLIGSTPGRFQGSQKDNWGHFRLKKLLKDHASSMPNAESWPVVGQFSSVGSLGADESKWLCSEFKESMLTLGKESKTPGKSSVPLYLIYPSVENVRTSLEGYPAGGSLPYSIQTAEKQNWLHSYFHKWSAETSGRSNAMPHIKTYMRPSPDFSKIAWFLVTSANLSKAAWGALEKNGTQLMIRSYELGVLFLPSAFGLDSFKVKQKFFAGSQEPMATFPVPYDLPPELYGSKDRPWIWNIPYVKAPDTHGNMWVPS
Test [2] has as its target T2, TDP2 (Homo sapiens (Human), UniProt O95551). Briefly: gel-based TDP2 fluorescence assay in vitro. The test is classed as biochemical. As to conditions: read-out: TDP2 IC50.
For test [3], the target named is whole cell extract (WCE) human TDP1 (Homo sapiens (Human), UniProt Q9NUW8). Briefly: gel based whole cell extract (WCE) human TDP1 fluorescence assay. As to conditions: read-out: WCE hTDP1 IC50. The test is classed as biochemical.
whole cell extract (WCE) human TDP1, sequence (Q9NUW8 whole entry): as above
The test system of test [4] is human colon cancer cell line HCT116. Briefly: Synergistic effect with camptothecin (CPT) based on cell viability. As to conditions: for synergy with camptothecin: list in description; for Synergy Score: with camptothecin (CPT), HCT116, 72 h, SynergyFinder 2.0. In a few lines: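 HCT116 cells grown to 30% confluency were exposed for 72 h at 37 °C to serially diluted CPT (0-100 nM) with or without TDP1 inhibitors. Viable cells were counted from brightfield images; fractional affect and combination index came from CompuSyn, and synergy scores from SynergyFinder.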

In test [5] the target is T1, TDP1. Briefly: Lineweaver-Burk plot analysis of TDP1 inhibition. The test is classed as biochemical. Here is the method:
Samples were then analyzed with a 20% DNA sequencing gel and exposed to a PhosphorImager screen for further analysis by Typhoon FLA 9500 (GE Healthcare). The Linearweaver-Burk plots (FIG. 1) were generated based on the substrate concentrations and corresponding reaction velocities.

The target in test [6] is T1, TDP1. Briefly: Degradation assay (western blotting) of TDP1 in HCT116 and HEK293 cells. It counts as cell-based. As to conditions: list in description. Here is the method: The degradation effect of the TDP1 inhibitors on TDP1 in human colon cancer cell line HCT116 and embryonic kidney cell line HEK293 were studied. Cells were first seeded in a 6-well plate until 60-80% confluency and then incubated with a serial dilution of TDP1 inhibitors at the range of 25-200 μM for 24-72 h at 37° C. […] Samples were then sonicated at 30% for 10 s and centrifuged for 15 min at 15000 rpm at 4 Celsius. Supernatant were collected and the concentration of total protein were measured by BCA Protein Assay Kit according to its protocols. Four micrograms of total protein for each sample were loaded and TDP1 level were conducted by western blotting.

The target of a further test is TOP1 (Homo sapiens (Human), UniProt P11387). Briefly: Degradation of TOP1 in cells (western blotting). It counts as cell-based. As to conditions: list in description. For orientation: Immunoblotting shows a protein as a band on a membrane.
The target of test [7] is T2, TDP2. Briefly: TDP2 degrading activity as stated in the description. As to conditions: list in description.
Where [8] appears, read: Table 3, gel based TDP1 fluorescence assay, read-out: TDP1 IC50.
The mark [9] stands for this setting: Table 3, values in brackets (footnote vi), read-out: TDP1 IC50 (μM), separated data from previous experiments.

T2 sequence (O95551 whole entry, species assumed): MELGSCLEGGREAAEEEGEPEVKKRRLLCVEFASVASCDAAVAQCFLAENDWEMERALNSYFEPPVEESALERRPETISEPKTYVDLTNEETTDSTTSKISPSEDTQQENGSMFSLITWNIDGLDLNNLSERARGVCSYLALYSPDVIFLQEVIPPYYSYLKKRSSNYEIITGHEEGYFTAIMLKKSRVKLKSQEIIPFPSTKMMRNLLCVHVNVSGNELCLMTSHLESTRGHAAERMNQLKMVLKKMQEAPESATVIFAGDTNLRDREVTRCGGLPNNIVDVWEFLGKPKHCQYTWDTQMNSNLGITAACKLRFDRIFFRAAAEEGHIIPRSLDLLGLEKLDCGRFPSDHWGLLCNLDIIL

Regarding `O=C(O)c1ccc(Nc2c(-c3ccc(-c4ccccc4)cc3)nc3ccc(C(=O)O)cn23)cc1` [Compound 8n, 2-([1,1′-Biphenyl]-4-yl)-3-((4-carboxyphenyl)amino)imidazo[1,2-a]pyridine-6-carboxylic acid], the 50% inhibitory concentration (IC50) at TDP1 [1] (Table 1, imidazo[1,2-a]pyridin-3-amines, read-out: IC50) is 1.5 µM; on TDP1 [1] (setting [8]) it was 2.94 ± 0.47 µM; on TDP1 [1] (setting [9]) it was 1.5 µM; on TDP2 [2] (Table 3), over 100 µM; in test [3], over 100 µM. The “TDP1 Selectivity” value at TDP1 [1] (ratio of IC50 values of TDP1/TDP2) is over 34. Moreover, the synergy with camptothecin result in test [4] is given as “exhibit synergy with camptothecin”. In test [4], the “Synergy Score” value was determined as 11.3.

As to `O=C(O)c1ccc(Nc2c(-c3ccccc3)nc3cnccn23)cc1C(=O)O` [Compound 10a, 4-((2-Phenylimidazo[1,2-a]pyrazin-3-yl)amino)phthalic acid], the IC50 at TDP1 [1] (Table 2, imidazo[1,2-a]pyrazin-3-amine core, read-out: IC50) was 45.5 µM; at TDP1 [1] (setting [8]) it was over 100 µM; on TDP1 [1] (setting [9]), 45.5 µM; on TDP2 [2] (Table 3), over 100 µM. Also, the Ki at TDP1 [5] (FIG. 1 legend, Lineweaver-Burk analysis, read-out: Inhibitory constant Ki) turned out to be 110 ± 30.9 µM; on TDP1 [5] (Table 3, constant of inhibition (FIG. 1), read-out: Ki), 110 ± 30.9 µM. In test [4], the “Synergy Score” value is recorded as 4.

Turning to `N#Cc1ccc(-c2ccc(Cn3cc(COc4ccc(-c5nc6cc(-c7ccccc7)ccn6c5Nc5ccc(C(=O)O)cc5)cc4)nn3)cc2)nc1` [XZ720, 4-((2-(4-((1-(4-(5-Cyanopyridin-2-yl)benzyl)-1H-1,2,3-triazol-4-yl)methoxy)phenyl)-7-phenylimidazo[1,2-a]pyridin-3-yl)amino)benzoic acid], the IC50 was determined as 23.5 ± 3.2 µM on TDP1 [1] (Table 8, lead compounds with different linkers, read-out: TDP1 IC50) and 32.9 ± 2.7 µM at TDP2 [2] (Table 8, lead compounds with different linkers). On TDP1 [1] (Table 8, ratio of IC50 TDP2 to TDP1), the “FC (fold change)” value was determined as 1. Further, the synergy with camptothecin entry in test [4] is recorded as “exhibit synergy with camptothecin”. The TDP1 degrading activity result at TDP1 [6] is reported as “exhibit TDP1 degrading activity”. For the same molecule, the TOP1 degrading activity result on TOP1 is “exhibit TOP1 degrading activity”. Also, the TDP2 degrading activity entry on TDP2 [7] is given as “exhibit TDP2 degrading activity”.

In general, IC50 refers to the concentration needed to halve the response being measured. For orientation: Ki means the dissociation constant of the complex between target and ligand, obtained from inhibition or displacement.
